According to ChEMBL document CHEMBL3862032, “Design, Synthesis, and Cytotoxic Evaluation of Novel Tubulysin Analogues as ADC Payloads” (ACS Med Chem Lett, 2016):

Legend:
[1] = tested on: KB; assay: Resistance ratio of IC50 for human KB 8.5 cells expressing MDR1 to IC50 for MDR1 deficient human KB cells; type: functional
[2] = Cytotoxicity against human KB 8.5 cells expressing MDR1 assessed as decrease in cell viability after 4 days by MTS assay; type: functional, cell-based; settings: KB 8.5, 96 h
[3] = Cytotoxicity against human MDA-MB-361/DYT2 cells assessed as decrease in cell viability after 4 days by MTS assay; type: functional, cell-based; settings: MDA-MB-361, 96 h
[4] = Cytotoxicity against human NCI-N87 cells assessed as decrease in cell viability after 4 days by MTS assay; type: functional, cell-based; settings: NCI-N87, 96 h
[5] = Cytotoxicity against MDR1 deficient human KB cells assessed as decrease in cell viability after 4 days by MTS assay; type: functional, cell-based; settings: 96 h

Row | SMILES | Ratio IC50 [1] | IC50 [2] | IC50 [3] | IC50 [4] | IC50 [5]
1 | CC[C@H](C)[C@H](NC(=O)[C@@]1(C)CCCN1C)C(=O)N(C)[C@H](C[C@@H](OC(C)=O)c1nc(C(=O)NCCc2cscn2)cs1)C(C)C | 2 | 198 nM | 33.2 nM | 61.3 nM | 86.6 nM
2 | CC[C@H](C)[C@H](NC(=O)[C@@]1(C)CCCN1C)C(=O)N(C)[C@H](C[C@@H](OC(C)=O)c1nc(C(=O)N[C@@H](Cc2ccc(N)cc2)C[C@H](C)C(=O)O)cs1)C(C)C | 5 | 2.77 nM | 0.9 nM | 1.11 nM | 0.5 nM
3 | CC[C@H](C)[C@H](NC(=O)[C@H]1CCCCN1)C(=O)N(C)[C@H](C[C@@H](OC(C)=O)c1nc(C(=O)N[C@@H](Cc2ccccc2)C[C@H](C)C(=O)OC)cs1)C(C)C | 54 | 141 nM | 1.68 nM | 7.74 nM | 2.6 nM
4 | CC[C@H](C)[C@H](NC(=O)[C@@]1(C)CCCN1C)C(=O)N(C)[C@H](C[C@@H](OC(C)=O)c1nc(C(=O)N[C@@H](Cc2ccccc2)C[C@H](C)C(=O)O)cs1)C(C)C | 9 | 1.02 nM | 0.07 nM | 0.13 nM | 0.11 nM
5 | CC[C@H](C)[C@H](NC(=O)[C@H]1CCCCN1C)C(=O)N(C)[C@H](C[C@@H](OC(C)=O)c1nc(C(=O)NCCc2cscn2)cs1)C(C)C | 5 | 17.5 nM | 6.45 nM | 9 nM | 3.69 nM
6 | CC[C@H](C)[C@H](NC(=O)[C@H]1CCCCN1C)C(=O)N(C)[C@H](C[C@@H](OC(C)=O)c1nc(C(=O)N[C@@H](Cc2ccccc2)c2nccs2)cs1)C(C)C | 4 | 13.5 nM | 0.95 nM | 3 nM | 3.57 nM
7 | CC[C@H](C)[C@H](NC(=O)[C@@]1(C)CCCN1C)C(=O)N(C)[C@H](C[C@@H](OC(C)=O)c1nc(C(=O)N[C@H](CNS(C)(=O)=O)Cc2ccccc2)cs1)C(C)C | 18 | 93.7 nM | 4.9 nM | 9.24 nM | 5.32 nM
8 | CC[C@H](C)[C@H](NC(=O)[C@@H]1C[C@@H](O)CN1C)C(=O)N(C)[C@H](C[C@@H](OC(C)=O)c1nc(C(=O)N[C@@H](Cc2ccccc2)C[C@H](C)C(=O)OC)cs1)C(C)C | 35 | 788 nM | 26.9 nM | 106 nM | 22.6 nM
9 | CC[C@H](C)[C@H](NC(=O)[C@H]1CCCCN1C)C(=O)N(C)[C@H](C[C@@H](OC(C)=O)c1nc(C(=O)N[C@@H](Cc2ccccc2)C(=O)N2CCCCC2)cs1)C(C)C | 5 | 20.1 nM | 6.32 nM | 6.75 nM | 3.71 nM
10 | CC[C@H](C)[C@H](NC(=O)[C@H](NC)C(C)C)C(=O)N(C)[C@H](C[C@@H](OC(C)=O)c1nc(C(=O)N[C@@H](Cc2ccccc2)C[C@H](C)C(=O)OC)cs1)C(C)C | 19 | 33.6 nM | 1.06 nM | 0.89 nM | 1.76 nM
11 | CC[C@H](C)[C@H](NC(=O)[C@H]1CCCN1C)C(=O)N(C)[C@H](C[C@@H](OC(C)=O)c1nc(C(=O)N[C@@H](Cc2ccccc2)C[C@H](C)C(=O)OC)cs1)C(C)C | 6 | 7.88 nM | 0.67 nM | 2.88 nM | 1.26 nM
12 | CC[C@H](C)[C@H](NC(=O)[C@H]1CCCCN1C)C(=O)N(C)[C@H](C[C@@H](OC(C)=O)c1nc(C(=O)N[C@@H](Cc2ccccc2)C[C@H](C)C(=O)O)cs1)C(C)C | 3 | 1.1 nM | 0.13 nM | 0.46 nM | 0.33 nM
13 | CC[C@H](C)[C@H](NC(=O)[C@H]1CCCCN1C)C(=O)N(C)[C@H](C[C@@H](OC(C)=O)c1nc(C(=O)N[C@@H](Cc2ccccc2)C[C@H](C)C(=O)OC)cs1)C(C)C | 3 | 0.7 nM | 0.22 nM | 0.32 nM | 0.22 nM
14 | CC[C@H](C)[C@H](NC(=O)[C@H]1CCCCN1C)C(=O)N(C)[C@H](C[C@@H](OC(C)=O)c1nc(C(=O)N[C@@H](Cc2ccccc2)CN2CCOCC2)cs1)C(C)C | 5 | 5.47 nM | 0.31 nM | 0.49 nM | 1.02 nM
15 | CC[C@H](C)[C@H](NC(=O)[C@@]1(C)CCCN1C)C(=O)N(C)[C@H](C[C@@H](OC(C)=O)c1nc(C(=O)N[C@@H](Cc2ccccc2)c2nccs2)cs1)C(C)C | 3 | 104 nM | 22 nM | 29.5 nM | 37.9 nM
16 | CC[C@H](C)[C@H](NC(=O)[C@@]1(C)CCCN1C)C(=O)N(C)[C@H](C[C@@H](OC(C)=O)c1nc(C(=O)N[C@@H](Cc2ccccc2)C[C@H](C)C(=O)OC)cs1)C(C)C | 5 | 5.52 nM | 0.45 nM | 0.89 nM | 1.04 nM
17 | CC[C@H](C)[C@H](NC(=O)[C@H]1CCCCN1C)C(=O)N(C)[C@H](C[C@@H](OC(C)=O)c1nc(C(=O)NCCn2nnc3ccccc32)cs1)C(C)C | 11 | 15.6 nM | 0.83 nM | 1.23 nM | 1.44 nM
18 | CC[C@H](C)[C@H](NC(=O)C(C)(C)N(C)C)C(=O)N(C)[C@H](C[C@@H](OC(C)=O)c1nc(C(=O)N[C@@H](Cc2ccccc2)C[C@H](C)C(=O)OC)cs1)C(C)C | 11 | 53.9 nM | 3.37 nM | 9.76 nM | 4.68 nM
19 | CC[C@H](C)[C@H](NC(=O)[C@@]1(C)CCCN1C)C(=O)N(C)[C@H](C[C@@H](OC(C)=O)c1nc(C(=O)N[C@@H](Cc2ccccc2)[C@@H](O)C(=O)OC)cs1)C(C)C | 5 | 28.4 nM | 6.09 nM | 9.91 nM | 6.28 nM
20 | CC[C@H](C)[C@H](NC(=O)[C@@]1(C)CCCN1C)C(=O)N(C)[C@H](C[C@@H](O)c1nc(C(=O)N[C@@H](Cc2ccc(N)cc2)C[C@H](C)C(=O)O)cs1)C(C)C |  | > 1000 nM | > 1000 nM | > 1000 nM | 769 nM
21 | CCNC(=O)O[C@H](C[C@H](C(C)C)N(C)C(=O)[C@@H](NC(=O)[C@@]1(C)CCCN1C)[C@@H](C)CC)c1nc(C(=O)N[C@@H](Cc2ccc(N)cc2)C[C@H](C)C(=O)O)cs1 | 6 | 4.53 nM | 1.94 nM | 1.92 nM | 0.77 nM
22 | CC[C@H](C)[C@H](NC(=O)[C@H]1CCCCN1C)C(=O)N(C)[C@H](C[C@@H](OC(C)=O)c1nc(C(=O)N[C@H](CNS(C)(=O)=O)Cc2ccccc2)cs1)C(C)C | 36 | 31.7 nM | 0.27 nM | 0.47 nM | 0.89 nM
23 | CC[C@H](C)[C@H](NC(=O)[C@H]1CCCCN1C)C(=O)N(C)[C@H](C[C@@H](OC(C)=O)c1nc(C(=O)N[C@@H](Cc2ccccc2)[C@@H](O)C(=O)OC)cs1)C(C)C | 11 | 13.4 nM | 0.27 nM | 1 nM | 1.21 nM
24 | CC[C@H](C)[C@H](NC(=O)[C@@]1(C)CCCN1C)C(=O)N(C)[C@H](C[C@@H](OC(C)=O)c1nc(C(=O)NC(CO)Cc2ccccc2)cs1)C(C)C (mixture of isomers) | 4 | 69.2 nM | 16.5 nM | 29.1 nM | 18 nM
25 | CC[C@H](C)[C@H](NC(=O)[C@@]1(C)CCCN1C)C(=O)N(C)[C@H](C[C@@H](OC(C)=O)c1nc(C(=O)NCCn2nnc3ccccc32)cs1)C(C)C | 4 | 46.3 nM | 9.05 nM | 11.8 nM | 11.5 nM
26 | CC[C@H](C)[C@H](NC(=O)[C@@]1(C)CCCN1C)C(=O)N(C)[C@H](C[C@@H](OC(C)=O)c1nc(C(=O)N[C@@H](Cc2ccccc2)C(O)c2nccs2)cs1)C(C)C (mixture of isomers) | 5 | 39.4 nM | 6.39 nM | 11.1 nM | 8.64 nM
27 | CC[C@H](C)[C@H](NC(=O)[C@@]1(C)CCCN1)C(=O)N(C)[C@H](C[C@@H](OC(C)=O)c1nc(C(=O)N[C@@H](Cc2ccccc2)C[C@H](C)C(=O)OC)cs1)C(C)C | 9 | 179 nM | 24 nM | 59 nM | 18.6 nM
